According to PubChem BioAssay AID1645863 (Buhrlage Lab, Dana-Farber Cancer Institute and Novartis …, 2021):
Active and inactive are the calls of the source. The rule behind the calls is not given here.

Target: Ubiquitin carboxyl-terminal hydrolase 10 (Homo sapiens) (UniProt Q14694)
Experiment: ubiquitin-specific protease 10 DUB inhibitors, concentration-effect, biochemical, verification of primary screen actives (AID 1645863);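 note: potency values describe inhibition of USP10 cleavage of a fluorogenic ubiquitin substrate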
Conditions: USP10 deubiquitinase enzymatic assay

Ubiquitin carboxyl-terminal hydrolase 10 (Homo sapiens), sequence (Q14694 whole entry, looked up): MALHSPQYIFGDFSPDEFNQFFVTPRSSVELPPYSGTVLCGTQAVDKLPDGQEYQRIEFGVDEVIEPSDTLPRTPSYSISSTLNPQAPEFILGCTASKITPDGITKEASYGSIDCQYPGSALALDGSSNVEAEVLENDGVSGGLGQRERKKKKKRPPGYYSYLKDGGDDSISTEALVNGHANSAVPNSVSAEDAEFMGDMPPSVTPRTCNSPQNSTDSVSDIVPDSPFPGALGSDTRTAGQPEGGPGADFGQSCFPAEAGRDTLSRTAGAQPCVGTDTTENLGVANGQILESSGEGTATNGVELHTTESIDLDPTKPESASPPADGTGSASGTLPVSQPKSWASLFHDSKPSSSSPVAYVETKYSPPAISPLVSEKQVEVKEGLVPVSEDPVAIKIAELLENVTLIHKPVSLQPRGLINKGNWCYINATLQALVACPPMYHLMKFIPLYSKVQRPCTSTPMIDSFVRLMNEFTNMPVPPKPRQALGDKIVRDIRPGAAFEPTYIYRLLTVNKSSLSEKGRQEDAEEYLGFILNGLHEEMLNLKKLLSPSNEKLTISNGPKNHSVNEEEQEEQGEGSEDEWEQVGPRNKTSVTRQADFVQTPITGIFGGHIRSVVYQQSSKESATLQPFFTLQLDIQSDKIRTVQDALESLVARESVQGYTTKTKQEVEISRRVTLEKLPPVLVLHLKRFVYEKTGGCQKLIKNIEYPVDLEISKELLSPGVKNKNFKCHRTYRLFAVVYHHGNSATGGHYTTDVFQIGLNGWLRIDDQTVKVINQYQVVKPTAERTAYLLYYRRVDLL

| Structure (SMILES) | IC50 |
| --- | --- |
| COc1ccc(NS(=O)(=O)c2cc(NC(=O)CC(=O)c3ccc([N+](=O)[O-])cc3)ccc2C)cc1 | > 40 µM (inactive) |
| Cc1cccc(NC(=O)CCCc2nnc3c(=O)n(-c4cccc(F)c4)ccn23)c1 | > 40 µM (inactive) |
| COC(=O)c1ccc(NC(=O)/C=C/c2ccc(F)cc2)cc1 | > 40 µM (inactive) |
| COc1ccc(C)cc1NC(=O)CN1C(=O)C2CCCC2=Nc2ccccc21 (centres undefined) | > 40 µM (inactive) |
| O=C(Nc1ccccc1C(F)(F)F)c1cccc(S(=O)(=O)Nc2cc(C(F)(F)F)ccc2Cl)c1 | > 40 µM (inactive) |
| CC(C)=CCOC(C)(C)[C@H]1OC2CC[C@@]3(C)C(CCC4Cc5c([nH]c6ccccc56)[C@@]43C)C23OC3[C@@H]1O (some centres undefined) | 10.6 µM |
| COc1ccc(NC(=O)Cn2c(=O)n(Cc3ccco3)c(=O)c3ccc(C(=O)NC4CCCC4)cc32)cc1 | > 40 µM (inactive) |
| N#C/C(=C\c1ccc(OCc2cccc(C(=O)O)c2)cc1)c1ccc(F)cc1 | 20.2 µM |
| Cc1cccc(N2C(=O)/C(=C\c3cc(C#N)n(C)c3C)c3ccccc3C2=O)c1 | 34.1 µM |
| CNc1ncc(C(=O)N2CCOC(C(=O)N3CCCCCC3)C2)cn1 (centres undefined) | > 40 µM (inactive) |
| Cc1cc(NS(=O)(=O)c2ccc(NC(=O)c3ccc(N4CCCC4)c([N+](=O)[O-])c3)cc2)no1 | 34.8 µM |
| Cc1c(-c2nsc(NC(=O)c3ccc(Cl)cc3)n2)nnn1-c1ccccc1F | 15.7 µM |
| CCCCC/C=C/C=C/C(=O)OC1C(O)CC(c2ccc3c(c2O)C(=O)c2c(O)cc4cc(C)cc(O)c4c2C3=O)OC1C (centres undefined) | > 40 µM (inactive) |
| Cc1ccc(NCc2cc3c(-c4cccc(F)c4)nn(-c4ccccc4)c3[nH]c2=O)cc1C | > 40 µM (inactive) |
| COc1ccc(OC)c2c(C)cc(N3CC(C)CC(C)C3)nc12 (centres undefined) | > 40 µM (inactive) |
| COc1ccc2c(c1)CCc1c-2n[nH]c1C(=O)Nc1cc(C)on1 | > 40 µM (inactive) |
| CCN(Cc1ccccc1)C(=O)Cn1ccc2ccn(C)c2c1=O | > 40 µM (inactive) |
| O=C(Nc1cccc([N+](=O)[O-])c1)Nc1ccc2snnc2c1 | > 40 µM (inactive) |
| NS(=O)(=O)c1cccc(NC(=O)/C=C/c2cn(-c3ccccc3)nc2-c2cccc([N+](=O)[O-])c2)c1 | 27.4 µM |
| O=C(Cc1ccc(-n2c(=O)c3ccccc3n(CC(=O)Nc3ccc(Cl)cc3Cl)c2=O)cc1)NCc1ccco1 | 11.3 µM |
| COc1ccc(NC(=O)c2nnc(C(=O)NCCN3CCCCCC3)s2)cc1 | > 40 µM (inactive) |
| Cc1c(C(=O)Nc2ccc(Oc3ccccc3)cc2)nnn1-c1cccc(Cl)c1 | > 40 µM (inactive) |
| COc1cc(OC)cc(N2C(=O)N(CC(=O)c3ccc(Br)cc3)c3ccccc3S2(=O)=O)c1 | 13.8 µM |

| Structure (SMILES) | IC50 |
| --- | --- |
| COc1ccc([C@H]2Oc3cc(OC)cc(O)c3C(=O)[C@@H]2[C@@H]2C(=O)c3c(O)cc(O)cc3O[C@H]2c2ccc(OC)cc2)cc1 | 18.5 µM |
| O=C(Cn1c(=O)n(-c2ccccc2)c(=O)c2ccc(C(=O)NCc3ccc4c(c3)OCO4)cc21)NCCC1=CCCCC1 | 16.2 µM |
| CCc1noc(-c2ccn3c(CC(=O)Nc4ccccc4C)nnc3c2)n1 | 8 µM |
| C[C@H](Cc1cc2c(cc1O)OCO2)[C@@H](C)Cc1cc2c(cc1O)OCO2 | 19.6 µM |
| Cc1cc(C)c(O)c(-c2cc(C(=O)Nc3ccccc3Cl)[nH]n2)c1 | > 40 µM (inactive) |
| COc1ccc(N2CC(c3nnc(NC(=O)CCc4ccccc4)s3)CC2=O)cc1 (centres undefined) | > 40 µM (inactive) |
| COC(=O)c1ccc2c(=O)n(CCCCCC(=O)NCCc3ccccc3Cl)c(=O)[nH]c2c1 | > 40 µM (inactive) |
| COc1ccccc1CNC(=O)Cn1cnc2c(-c3ccccc3)csc2c1=O | > 40 µM (inactive) |
| O=C(CCCn1c(=O)c2sccc2n(CC(=O)NCCC2=CCCCC2)c1=O)NCc1ccc2c(c1)OCO2 | 13.8 µM |
| Cc1ccc(Nc2nc(NCC(=O)Nc3cc(C)ccc3C)nc(Nc3ccc(C)cc3)n2)cc1 | 32.8 µM |
| Cc1ccc(-n2nc(C)c3c2NC(=O)CC3C(=O)c2cc3ccccc3o2)cc1 (centres undefined) | > 40 µM (inactive) |
| COc1ccc(C2/C(=C(\O)c3ccccc3)C(=O)C(=O)N2c2nc3ccc(F)cc3s2)cc1 (centres undefined) | 8.94 µM |
| O=C(Nc1c2c(nn1-c1ccc([N+](=O)[O-])cc1)CSC2)c1c(F)cccc1F | > 40 µM (inactive) |
| CC1=C(C)C(N(c2ccccc2)c2ccccc2)N(CCC(C)C)C1=O (centres undefined) | > 40 µM (inactive) |
| CC(C)NC(=O)Cn1ccn2nc(-c3ccc(Cl)cc3)cc2c1=O | > 40 µM (inactive) |
| Cc1ccc(-c2cc(=O)n(CC(=O)Nc3ccc(C(C)C)cc3)cn2)cc1 | > 40 µM (inactive) |
| O=C(CSc1nnc2n(-c3ccccc3)c(=O)c3ccccc3n12)c1ccc(F)cc1 | 12.9 µM |
| O=C(c1cnc2ccccc2n1)N1CCC(S(=O)(=O)c2ccc(-c3ccco3)cc2)CC1 | > 40 µM (inactive) |
| COc1ccc(S(=O)(=O)NCc2ccc3c(c2)cc(C)n3C)cc1 | > 40 µM (inactive) |
| CCOCc1ccc(C(=O)N[C@H](C)c2nc3cc(-c4ccc(OC)cc4)ncn3n2)cc1 | > 40 µM (inactive) |
| CCOc1ccc(CC(=O)Nc2ccc(-c3cn4cccnc4n3)cc2)cc1 | > 40 µM (inactive) |
| COc1cc2c(c(OC)c1OC)-c1ccc(NCCc3cccc(F)c3)c(=O)cc1[C@@H](NC(C)=O)CC2 | > 40 µM (inactive) |
| CCOc1ccc2c(c1)c(=O)c(C(=O)c1ccccc1)cn2CC(=O)Nc1ccc(OC)cc1 | > 40 µM (inactive) |

| Structure (SMILES) | IC50 |
| --- | --- |
| CCc1ccc([C@@H]2c3c(C)nn(C)c3NC(=O)[C@H]2NC(=O)c2ccc(OC)c(OC)c2)cc1 | > 40 µM (inactive) |
| CC1CCc2c(sc(NC(=O)c3cccc(S(C)(=O)=O)c3)c2C(N)=O)C1 (centres undefined) | > 40 µM (inactive) |
| Fc1ccccc1-c1nnc(C2(c3ccc4c(c3)OCO4)CCOCC2)o1 | > 40 µM (inactive) |
| CN1CCc2c(C#N)c(N3CCOCC3)nc(NCC3CCCO3)c2C1 (centres undefined) | > 40 µM (inactive) |
| O=C(NCc1ccc(Br)cc1)c1cc(-c2cccnc2)n[nH]1 | > 40 µM (inactive) |
| CCOc1cc2c(cc1OCC)C(c1cc3c(cc1Br)OCO3)NCC2 (centres undefined) | > 40 µM (inactive) |
| Cc1ccc(NC(=O)c2cc(-c3ccccn3)nc3c(Cl)cccc23)nc1 | > 40 µM (inactive) |
| Cc1c(OCC(=O)NCc2ccccc2Cl)ccc2c3c(c(=O)oc12)CCC3 | > 40 µM (inactive) |
| O=C(NC1(O)C(=O)c2ccccc2C1=O)c1cccc2c1-c1ccccc1C2=O | 10.3 µM |
| Cc1cccc(NC(=O)Nc2ccc(C)n(CC(=O)Nc3ccc(C)c(C)c3)c2=O)c1 | > 40 µM (inactive) |
| CC1OC2CC(O)C1(O)C1=C2C(O)=C(C(N)=O)C(=N)C1=O (centres undefined) | 7.46 µM |
| CCc1ccc(-n2c(C)cc(/C=C3\C(=N)N4N=CSC4=NC3=O)c2C)cc1 | > 40 µM (inactive) |
| CCC/C=C\C#CC/C=C\CCCCCCCC(=O)O | 3.3 µM |
| CCc1ccc(NC(=O)CSc2nc3nccnc3c(=O)n2Cc2ccc(F)cc2)cc1 | > 40 µM (inactive) |
| O=C(COc1ccc(N2CC(C(=O)NCc3ccc4c(c3)OCO4)CC2=O)cc1)Nc1ccc(F)cc1 (centres undefined) | 20.8 µM |
| CCCc1nnc(NC(=O)c2cc(-c3ccccc3O)n[nH]2)s1 | > 40 µM (inactive) |
| O=S(=O)(Nc1ccc(Oc2ncnc3cc(Cl)ccc23)nc1)c1ccc(S(=O)(=O)c2ccccc2)s1 | 29.5 µM |
| Cn1nc(C(=O)N2CCC(c3ccccc3)C2)c2c1-c1ccsc1CC2 (centres undefined) | > 40 µM (inactive) |
| CC(C)=CCCC1(C)C=Cc2c(O)c3c(c(CC=C(C)C)c2O1)OC12C(=CC4CC1C(C)(C)OC2(C/C=C(/C)C(=O)O)C4=O)C3=O (centres undefined) | 9.59 µM |
| O=C(Nc1ccc2c(c1)OCCO2)C1CCC(Cn2cnc3ccccc3c2=O)CC1 (centres undefined) | > 40 µM (inactive) |
| Cc1c(C)n(-c2ccccc2)c2ncn(CC(=O)NCc3cccc(F)c3)c(=O)c12 | > 40 µM (inactive) |
| Cc1c(-c2nc(-c3ccccc3Cl)no2)nnn1-c1cccc(F)c1 | > 40 µM (inactive) |
| Cc1ccc(N2CC(C(=O)Nc3cccc(-c4noc(C)n4)c3)CC2=O)cc1 (centres undefined) | > 40 µM (inactive) |

| Structure (SMILES) | IC50 |
| --- | --- |
| CCc1nnc(-c2ccc3ccn(CC(=O)N4CCN(c5ccccn5)CC4)c3c2)o1 | > 40 µM (inactive) |
| COc1ccc(-n2c(=O)c3ccc(C(=O)NCCc4ccccc4)cc3n(CC(=O)NCc3ccco3)c2=O)cc1 | > 40 µM (inactive) |
| O=C(/C=C/c1ccc(F)cc1)N1CCc2ccccc2C1 | > 40 µM (inactive) |
| CCC(=O)N1c2ccccc2NC2=C(C(=O)CC(c3ccccc3OCc3ccccc3)C2)C1c1ccccc1 (centres undefined) | 35.7 µM |
| N#Cc1ccc(NC(=O)Nc2cccn(Cc3ccccc3Br)c2=O)cc1 | > 40 µM (inactive) |
| Cc1ccccc1-c1nc(-c2cn(CC(=O)Nc3ccccc3)cn2)no1 | > 40 µM (inactive) |
| Cc1cc(NC(=O)CN2CCCN(S(=O)(=O)c3ccc(F)cc3)CC2)ccc1Br | > 40 µM (inactive) |
| Cc1cccc(NC(=O)CNC(=O)c2ccc(-c3noc(C4CCCC4)n3)cc2)c1C | > 40 µM (inactive) |
| COc1ccc(-c2n[nH]n3c2nc(=O)c2ccc(C(=O)NCc4ccco4)cc23)cc1 | > 40 µM (inactive) |
| COc1ccc(NS(=O)(=O)c2cc(NC(=O)CC(=O)c3ccc([N+](=O)[O-])cc3)ccc2Cl)cc1 | 12.2 µM |
| COc1ccc(CCNC(=O)Cn2c(=O)n(-c3ccc(CC(=O)NCCc4ccccc4)cc3)c(=O)c3ccccc32)cc1OC | > 40 µM (inactive) |
| COc1ccc(CCNC(=O)Cn2c(=O)c3sccc3n(Cc3cccc([N+](=O)[O-])c3)c2=O)cc1OC | 16 µM |
| O=C(Cn1c(=O)n(CCC(=O)N2CCc3ccccc3C2)c(=O)c2ccccc21)NCc1ccccc1Cl | > 40 µM (inactive) |
| COc1ccc(-c2cc3n(c(=N)c2C#N)CCc2cc4c(cc2-3)OCO4)cc1O | > 40 µM (inactive) |
| COc1ccc(OC)c(NC(=O)c2sc(-c3ccccc3)nc2C)c1 | 37 µM |
| COC(=O)c1ccccc1NC(=O)Cn1c(=O)n(CCCC(=O)NCc2ccco2)c(=O)c2ccccc21 | 13 µM |
| CCOC(=O)C1CCN(C(=O)c2ccc3c(c2)NC(=O)C2CCCN32)CC1 (centres undefined) | > 40 µM (inactive) |
| CCn1c(SCC(=O)Nc2ccc(C)c(Cl)c2)nnc1-c1ccc2c(c1)OCCO2 | > 40 µM (inactive) |
| CC(C)Cc1ccc(-c2cc(-c3ccc(C(F)(F)F)cc3)c(C#N)c(=O)[nH]2)cc1 | 9.8 µM |
| COc1cn(-c2ccc(F)cc2)nc1C(=O)Nc1ccc(Cl)cc1Cl | 16.2 µM |
